The values that follow come from the supplement of paper PMC10307832.

Common to all, as to experiment: relative viability (nuclei count vs DMSO), 5 days (fraction); higher = more cells survive
Compound in experiment [1]: CCCS(=O)(=O)Nc1ccc(F)c(C(=O)c2c[nH]c3ncc(-c4ccc(Cl)cc4)cc23)c1F [Vemurafenib] + CC(=O)c1c(C)c2cnc(Nc3ccc(N4CCNCC4)cn3)nc2n(C2CCCC2)c1=O [Palbociclib] (partner 0.5 µM)
Put shortly:
(§1)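 Lung cancer cell lines in 1536-well plates were dosed by pin tool the day after seeding, either with one drug alone or with a fixed anchor-drug dose plus five library-drug doses (not always all listed) in √10 steps. After 5 days, cells were fixed and their nuclei stained in one step (final 0.05% Triton X-100, 1% formaldehyde, 1 ug/ml Hoechst), then counted on 4× images. Relative viability is the nuclei count in treated wells divided by that in vehicle wells. Values are medians of duplicate plates.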

Compound in the experiment “Vemurafenib + Luminespib”: CCCS(=O)(=O)Nc1ccc(F)c(C(=O)c2c[nH]c3ncc(-c4ccc(Cl)cc4)cc23)c1F [Vemurafenib] + CCNC(=O)c1noc(-c2cc(C(C)C)c(O)cc2O)c1-c1ccc(CN2CCOCC2)cc1 [Luminespib] (partner 0.01 µM)
The essentials:
as §1

Compound in the experiment “OSI-027 + Alpelisib”: COc1cccc2cc(-c3nc([C@H]4CC[C@H](C(=O)O)CC4)n4ncnc(N)c34)[nH]c12 [OSI-027] + Cc1nc(NC(=O)N2CCC[C@H]2C(N)=O)sc1-c1ccnc(C(C)(C)C(F)(F)F)c1 [Alpelisib] (partner 2 µM)
The essentials: as §1

Compound in the experiment “OSI-027 + AZD7762”: COc1cccc2cc(-c3nc([C@H]4CC[C@H](C(=O)O)CC4)n4ncnc(N)c34)[nH]c12 [OSI-027] + NC(=O)Nc1cc(-c2cccc(F)c2)sc1C(=O)N[C@H]1CCCNC1 [AZD7762] (partner 0.2 µM)
Put shortly:
as §1

With NCI-H1944, the relative viability came to 0.332 in experiment [1] (first compound 0.03162 µM); 0.313 in experiment [1] (first compound 0.3162 µM); 0.385 in experiment [1] (first compound 1 µM); 0.665 with Vemurafenib + Luminespib (first compound 0.03162 µM); 0.601 in the experiment with Vemurafenib + Luminespib (first compound 0.1 µM); 0.736 with Vemurafenib + Luminespib (first compound 0.3162 µM). The relative viability with Vemurafenib + Luminespib (first compound 1 µM) turned out to be 0.663; with OSI-027 + Alpelisib (first compound 0.01 µM) it was 0.855; in the experiment with OSI-027 + Alpelisib (first compound 0.03162 µM) it was 0.796; with OSI-027 + Alpelisib (first compound 0.1 µM), 0.764; with OSI-027 + Alpelisib (first compound 0.3162 µM) it was 0.607; with OSI-027 + Alpelisib (first compound 1 µM) it was 0.301. Moreover, the relative viability with OSI-027 + AZD7762 (first compound 0.01 µM) amounted to 0.611; with OSI-027 + AZD7762 (first compound 0.03162 µM), 0.43; in the experiment with OSI-027 + AZD7762 (first compound 0.1 µM), 0.648; with OSI-027 + AZD7762 (first compound 0.3162 µM) it was 0.56; with OSI-027 + AZD7762 (first compound 1 µM), 0.371.

On to NCI-H1395, for which the relative viability amounted to 0.553 in experiment [1] (first compound 0.03162 µM); 0.613 in experiment [1] (first compound 0.1 µM); 0.523 in experiment [1] (first compound 0.3162 µM); 0.611 in experiment [1] (first compound 1 µM); 0.679 in the experiment with Vemurafenib + Luminespib (first compound 0.03162 µM); 0.445 with Vemurafenib + Luminespib (first compound 0.1 µM). Also, the relative viability with Vemurafenib + Luminespib (first compound 1 µM) amounted to 0.555; with OSI-027 + Alpelisib (first compound 0.01 µM), 1.04; in the experiment with OSI-027 + Alpelisib (first compound 0.03162 µM), 1.14; in the experiment with OSI-027 + Alpelisib (first compound 0.1 µM), 0.974; in the experiment with OSI-027 + Alpelisib (first compound 0.3162 µM), 0.93; in the experiment with OSI-027 + Alpelisib (first compound 1 µM) it was 0.757. In addition, the relative viability with OSI-027 + AZD7762 (first compound 0.01 µM) turned out to be 0.316; with OSI-027 + AZD7762 (first compound 0.03162 µM), 0.398; with OSI-027 + AZD7762 (first compound 0.1 µM), 0.396; with OSI-027 + AZD7762 (first compound 0.3162 µM), 0.352; with OSI-027 + AZD7762 (first compound 1 µM), 0.386.

201T: the relative viability in experiment [1] (first compound 0.03162 µM) amounted to 0.37; in experiment [1] (first compound 0.1 µM), 0.309; in experiment [1] (first compound 0.3162 µM), 0.365; in experiment [1] (first compound 1 µM), 0.402; in the experiment with Vemurafenib + Luminespib (first compound 0.03162 µM), 1.01; with Vemurafenib + Luminespib (first compound 0.1 µM), 1.05. In addition, the relative viability was 1.14 with Vemurafenib + Luminespib (first compound 0.3162 µM); 1.03 with Vemurafenib + Luminespib (first compound 1 µM); 0.998 with OSI-027 + Alpelisib (first compound 0.01 µM); 1 with OSI-027 + Alpelisib (first compound 0.03162 µM); 0.963 with OSI-027 + Alpelisib (first compound 0.1 µM); 0.919 with OSI-027 + Alpelisib (first compound 0.3162 µM). Moreover, the relative viability turned out to be 0.545 in the experiment with OSI-027 + Alpelisib (first compound 1 µM); 0.562 with OSI-027 + AZD7762 (first compound 0.01 µM); 0.691 with OSI-027 + AZD7762 (first compound 0.03162 µM); 0.585 with OSI-027 + AZD7762 (first compound 0.1 µM); 0.472 with OSI-027 + AZD7762 (first compound 0.3162 µM); 0.511 in the experiment with OSI-027 + AZD7762 (first compound 1 µM).

Consider NCI-H2405, for which the relative viability was determined as 0.493 in experiment [1] (first compound 0.03162 µM); 0.536 in experiment [1] (first compound 0.1 µM); 0.58 in experiment [1] (first compound 1 µM); 0.667 in the experiment with Vemurafenib + Luminespib (first compound 0.03162 µM); 0.625 with Vemurafenib + Luminespib (first compound 0.1 µM); 0.576 with Vemurafenib + Luminespib (first compound 1 µM). Further, the relative viability with OSI-027 + Alpelisib (first compound 0.01 µM) amounted to 0.783; with OSI-027 + Alpelisib (first compound 0.03162 µM), 0.664; in the experiment with OSI-027 + Alpelisib (first compound 0.1 µM) it was 0.577; with OSI-027 + Alpelisib (first compound 0.3162 µM), 0.475; with OSI-027 + Alpelisib (first compound 1 µM), 0.33; in the experiment with OSI-027 + AZD7762 (first compound 0.01 µM), 0.701. In addition, the relative viability in the experiment with OSI-027 + AZD7762 (first compound 0.03162 µM) is 0.836; with OSI-027 + AZD7762 (first compound 0.1 µM), 0.699; in the experiment with OSI-027 + AZD7762 (first compound 0.3162 µM), 0.598; with OSI-027 + AZD7762 (first compound 1 µM), 0.376.

As for RERF-LC-KJ, the relative viability in experiment [1] (first compound 0.03162 µM) is 1.03; in experiment [1] (first compound 0.1 µM), 0.968; in experiment [1] (first compound 0.3162 µM), 1.07; in experiment [1] (first compound 1 µM) it was 1.11; with Vemurafenib + Luminespib (first compound 0.03162 µM) it was 1.26; with Vemurafenib + Luminespib (first compound 0.1 µM), 0.991. In addition, the relative viability is 1.26 in the experiment with Vemurafenib + Luminespib (first compound 0.3162 µM); 1.31 with Vemurafenib + Luminespib (first compound 1 µM); 0.698 in the experiment with OSI-027 + Alpelisib (first compound 0.01 µM); 0.793 in the experiment with OSI-027 + Alpelisib (first compound 0.03162 µM); 0.641 with OSI-027 + Alpelisib (first compound 0.1 µM); 0.507 in the experiment with OSI-027 + Alpelisib (first compound 0.3162 µM). Besides, the relative viability turned out to be 0.361 with OSI-027 + Alpelisib (first compound 1 µM); 1.05 with OSI-027 + AZD7762 (first compound 0.01 µM); 0.742 in the experiment with OSI-027 + AZD7762 (first compound 0.03162 µM); 0.871 with OSI-027 + AZD7762 (first compound 0.1 µM); 0.748 with OSI-027 + AZD7762 (first compound 0.3162 µM); 0.452 with OSI-027 + AZD7762 (first compound 1 µM).

As to NCI-H1993, the relative viability came to 0.63 in experiment [1] (first compound 0.03162 µM); 0.703 in experiment [1] (first compound 0.3162 µM); 0.54 in experiment [1] (first compound 1 µM); 0.465 with Vemurafenib + Luminespib (first compound 0.03162 µM); 0.773 with Vemurafenib + Luminespib (first compound 0.3162 µM); 0.86 in the experiment with Vemurafenib + Luminespib (first compound 1 µM). Also, the relative viability in the experiment with OSI-027 + Alpelisib (first compound 0.01 µM) came to 0.647; with OSI-027 + Alpelisib (first compound 0.03162 µM) it was 0.646; with OSI-027 + Alpelisib (first compound 0.1 µM) it was 0.562; in the experiment with OSI-027 + Alpelisib (first compound 0.3162 µM), 0.533; with OSI-027 + Alpelisib (first compound 1 µM) it was 0.655; with OSI-027 + AZD7762 (first compound 0.01 µM), 0.777. Further, the relative viability with OSI-027 + AZD7762 (first compound 0.03162 µM) was 0.728; with OSI-027 + AZD7762 (first compound 0.1 µM), 0.606; with OSI-027 + AZD7762 (first compound 0.3162 µM), 0.542; in the experiment with OSI-027 + AZD7762 (first compound 1 µM), 0.416.

On to EPLC-272H, for which the relative viability in experiment [1] (first compound 0.03162 µM) was found to be 0.34; in experiment [1] (first compound 0.1 µM), 0.3; in experiment [1] (first compound 0.3162 µM), 0.413; in experiment [1] (first compound 1 µM), 0.353; with Vemurafenib + Luminespib (first compound 0.03162 µM), 0.316; in the experiment with Vemurafenib + Luminespib (first compound 0.1 µM) it was 0.0941. Further, the relative viability with Vemurafenib + Luminespib (first compound 0.3162 µM) was determined as 0.494; in the experiment with Vemurafenib + Luminespib (first compound 1 µM), 0.228; with OSI-027 + Alpelisib (first compound 0.01 µM) it was 0.889; in the experiment with OSI-027 + Alpelisib (first compound 0.03162 µM) it was 0.866; with OSI-027 + Alpelisib (first compound 0.1 µM), 0.828; with OSI-027 + Alpelisib (first compound 0.3162 µM), 0.619. For the same cell line, the relative viability was 0.599 with OSI-027 + Alpelisib (first compound 1 µM); 0.262 with OSI-027 + AZD7762 (first compound 0.01 µM); 0.212 with OSI-027 + AZD7762 (first compound 0.03162 µM); 0.162 with OSI-027 + AZD7762 (first compound 0.1 µM); 0.0961 in the experiment with OSI-027 + AZD7762 (first compound 0.3162 µM); 0.124 with OSI-027 + AZD7762 (first compound 1 µM).

As for NCI-H1915, the relative viability in experiment [1] (first compound 0.03162 µM) amounted to 0.526; in experiment [1] (first compound 0.1 µM) it was 0.496; in experiment [1] (first compound 0.3162 µM), 0.554; in experiment [1] (first compound 1 µM), 0.487; with Vemurafenib + Luminespib (first compound 0.03162 µM), 0.698; in the experiment with Vemurafenib + Luminespib (first compound 0.1 µM) it was 0.727. For the same cell line, the relative viability with Vemurafenib + Luminespib (first compound 0.3162 µM) is 0.795; in the experiment with Vemurafenib + Luminespib (first compound 1 µM), 0.636; with OSI-027 + Alpelisib (first compound 0.01 µM) it was 1.11; with OSI-027 + Alpelisib (first compound 0.03162 µM), 1.12; in the experiment with OSI-027 + Alpelisib (first compound 0.1 µM), 1.13; with OSI-027 + Alpelisib (first compound 0.3162 µM), 0.956. Also, the relative viability with OSI-027 + Alpelisib (first compound 1 µM) was determined as 0.605; with OSI-027 + AZD7762 (first compound 0.01 µM), 0.728; with OSI-027 + AZD7762 (first compound 0.03162 µM), 0.792; with OSI-027 + AZD7762 (first compound 0.1 µM) it was 0.72; with OSI-027 + AZD7762 (first compound 0.3162 µM) it was 0.592; with OSI-027 + AZD7762 (first compound 1 µM), 0.653.
